Among the data in US20250136570A1 (Tango Therapeutics, Inc., priority 2021, published 2025) are IC50 values, retold here.

For one experiment, the target named is HDAC3/NCor2 (Homo sapiens (Human), UniProt O15379). The experiment in a line: HDAC3 inhibition, Fluor de Lys fluorescent enzyme assay. The experiment is classed as biochemical. Conditions: 3 hours pre-incubation at room temp; 1.2 nM enzyme; 16 μM Fluor de Lys substrate; duplicate. The text has this:
(§1) Recombinant HDAC1 (cat #: 50051) and HDAC3/NCor2 (cat #: 50003) enzymes were purchased from BPS Bioscience (San Diego, CA, US). Assay reagents for the detection of HDAC enzyme activity (Fluor de Lys®—Green substrate and Developer kits) were purchased from Enzo Life Science (Farmingdale, NY, US). Plates used to conduct the enzyme reaction were Proxiplate-384 (cat #: 6008280) Plus from PerkinElmer (Waltham, MA, US). TSA, an HDAC inhibitor, was purchased from Enzo Life Science (cat #BML-GR309-9090) The remainder of the reagents used to prepare the assay buffer were purchased from Sigma-Aldrich (St Louis, MO, US). Unless stated otherwise, HDAC1 and 3 assays were conducted in 50 mM Tris buffer, pH 8, 137 mM NaCl, 2.7 mM KCl, 0.01% BSA.
(§2) IC50 determination for HDAC1 and HDAC3—Prior to adding reagents, 50 nL/well of compound were added to Proxiplates using an Echo dispenser instrument (Beckman Coulter, CA, US). After addition of compound, 2.5 μL/well of 2× enzyme solution was added and the enzyme was pre-incubated with compound for 3 hours at room temp. (˜22° C.). After the pre-incubation period, the enzyme reaction was initiated by adding 2.5 μL/well of 2× Fluor de Lys® substrate solution. The assay reaction was stopped after one hour by adding 5 μl/well of a 0.66× Developer solution containing TSA (3.2 μM). The final product of the enzyme reaction was read using a Spectramax plate reader instrument (Molecular Devices, CA, US) using a fluorescent readout (Ex 360 nm/Em 460 nm). The final enzyme concentrations in the assay buffer for HDAC1 and 3 were 6 and 1.2 nM, respectively. The final Fluor de Lys® substrate concentration in the assay buffer was 16 μM for all HDAC enzymes. IC50 values were determined using the following equation: […]
(§3) Where Efree and Eo are the free and total amount of HDAC enzyme in the reaction mixture, n is the hill coefficient, I is the free inhibitor concentration, and IC50 is the measure of the potency equivalent to the inhibitor concentration that leads to a 50% occupancy of the total enzyme. Each data was generated in duplicate.

The target in another experiment is Recombinant HDAC1 (Homo sapiens (Human), UniProt Q13547). The experiment in a line: HDAC1 inhibition, Fluor de Lys fluorescent enzyme assay. The format is biochemical. Conditions: 3 hours pre-incubation at room temp; 6 nM enzyme; 16 μM Fluor de Lys substrate; duplicate.
Sequence of Recombinant HDAC1 (Q13547 whole entry): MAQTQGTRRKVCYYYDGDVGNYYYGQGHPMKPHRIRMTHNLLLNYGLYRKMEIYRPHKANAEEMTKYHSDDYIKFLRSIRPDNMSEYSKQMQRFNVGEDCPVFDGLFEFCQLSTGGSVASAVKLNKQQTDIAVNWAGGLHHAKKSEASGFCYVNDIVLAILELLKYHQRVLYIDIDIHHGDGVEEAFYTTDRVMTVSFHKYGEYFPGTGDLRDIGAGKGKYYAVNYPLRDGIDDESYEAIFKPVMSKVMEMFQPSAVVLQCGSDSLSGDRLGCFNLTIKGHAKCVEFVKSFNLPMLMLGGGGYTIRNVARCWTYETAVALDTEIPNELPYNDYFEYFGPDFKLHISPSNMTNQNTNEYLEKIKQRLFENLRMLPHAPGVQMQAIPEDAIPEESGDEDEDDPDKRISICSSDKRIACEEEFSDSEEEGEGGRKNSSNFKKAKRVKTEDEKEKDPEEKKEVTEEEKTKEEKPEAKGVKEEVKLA
Source text: as §1, §2, §3

pIC50: −log10 of the molar value.

Sequence of HDAC3/NCor2 (O15379 whole entry): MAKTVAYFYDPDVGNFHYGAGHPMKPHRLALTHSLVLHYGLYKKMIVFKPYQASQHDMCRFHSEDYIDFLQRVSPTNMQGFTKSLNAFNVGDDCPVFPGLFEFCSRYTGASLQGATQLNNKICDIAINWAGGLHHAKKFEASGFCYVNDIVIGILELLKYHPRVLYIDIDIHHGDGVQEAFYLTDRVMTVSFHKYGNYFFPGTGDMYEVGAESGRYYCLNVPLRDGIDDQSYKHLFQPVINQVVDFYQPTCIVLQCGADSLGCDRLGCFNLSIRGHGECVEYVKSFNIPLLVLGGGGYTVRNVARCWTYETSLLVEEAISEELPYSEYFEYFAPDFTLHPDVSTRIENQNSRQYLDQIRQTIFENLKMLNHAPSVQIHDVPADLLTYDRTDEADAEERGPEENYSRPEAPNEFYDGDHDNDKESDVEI
Sequence of HDAC3/NCor2 (Q9Y618 395-489 partner): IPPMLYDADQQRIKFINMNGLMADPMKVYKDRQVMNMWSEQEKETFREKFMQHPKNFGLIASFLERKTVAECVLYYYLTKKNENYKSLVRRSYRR

For `CS(=O)(=NC1CC1)c1ccc(C(=O)Nc2cc(-c3ccc(F)cc3)ccc2N)cc1` (centres unmarked) [Compound 163, N-[2-amino-5-(4-fluorophenyl)phenyl]-4-(N-cyclopropyl-S-methyl-sulfonimidoyl)benzamide], the figures for the pIC50 against HDAC3/NCor2 and at Recombinant HDAC1 were 6.30 to 7.00 and > 7.00, respectively. With `CS(=N)(=O)c1ccc(C(=O)Nc2cc(-c3cncs3)ccc2N)cc1` (centres unmarked) [Compound 148, N-(2-amino-5-thiazol-5-yl-phenyl)-4-(methylsulfonimidoyl)benzamide], the figures for the pIC50 against HDAC3/NCor2 and at Recombinant HDAC1 were 5.70 to 6.30 and > 7.00, respectively. As for `COCCS(=N)(=O)c1ccc(C(=O)Nc2cc(-c3cccs3)ccc2N)nc1` (centres unmarked) [Compound 121, N-[2-amino-5-(2-thienyl)phenyl]-5-(2-methoxyethylsulfonimidoyl)pyridine-2-carboxamide], the pIC50 (commonly the negative decadic logarithm of the IC50, by convention in mol/L) against HDAC3/NCor2 is 5.70 to 6.30; on Recombinant HDAC1, > 7.00. `COc1ccc(S(=N)(=O)c2ccc(C(=O)Nc3cc(-c4ccc(F)cc4)ccc3N)cc2)cn1` (centres unmarked) [Compound 222, N-[2-amino-5-(4-fluorophenyl)phenyl]-4-[(6-methoxy-3-pyridyl)sulfonimidoyl]benzamide]: the figures for the pIC50 against HDAC3/NCor2 and on Recombinant HDAC1 were 5.70 to 6.30 and > 7.00, respectively.

As to `C[S@@](=N)(=O)c1ccc(C(=O)Nc2cc(-c3ccc(F)cc3)ccc2N)cc1` [Compound 132, (R)—N-[2-amino-5-(4-fluorophenyl)phenyl]-4-(methylsulfonimidoyl)benzamide], the pIC50 was 5.70 to 6.30 at HDAC3/NCor2 and > 7.00 on Recombinant HDAC1.

With `N=S(=O)(c1ccc(C(=O)Nc2cc(-c3ccccn3)ccc2N)cc1)C1CC1` (centres unmarked) [Compound 120, N-[2-amino-5-(2-pyridyl)phenyl]-4-(cyclopropylsulfonimidoyl)benzamide], the pIC50 against HDAC3/NCor2 is < 5.70; at Recombinant HDAC1, 6.30 to 7.00. As to `COc1ncc(S(=N)(=O)c2ccc(C(=O)Nc3cc(-c4ccc(F)cc4)ccc3N)cc2)[nH]1` (centres unmarked) [Compound 252, N-[2-amino-5-(4-fluorophenyl)phenyl]-4-[(2-methoxy-1H-imidazol-5-yl)sulfonimidoyl]benzamide], the pIC50 was < 5.70 on HDAC3/NCor2 and > 7.00 on Recombinant HDAC1. For `N=S(=O)(c1ccccc1)c1ccc(C(=O)Nc2cc(-c3cccs3)ccc2N)cc1` (centres unmarked) [Compound 102, N-[2-amino-5-(2-thienyl)phenyl]-4-(phenylsulfonimidoyl)benzamide] the same measures were 5.70 to 6.30 and > 7.00. Regarding `N=[S@](=O)(c1ccc(C(=O)Nc2cc(-c3ccc(F)cc3)ccc2N)cc1)c1ccccn1` (single isomer, unassigned) [Compound 220], the values for the pIC50 on HDAC3/NCor2 and at Recombinant HDAC1 were 5.70 to 6.30 and > 7.00, respectively. Consider `Nc1ccc(-c2ccc(F)cc2)cc1NC(=O)c1ccc([S@]2(=O)=N[C@@H](c3ccccc3)CC2)cc1` (racemic) [Compound 196, rac-N-(4-amino-4′-fluoro-[1,1′-biphenyl]-3-yl)-4-((1S,3R)-1-oxido-3-phenyl-4,5-dihydro-3H-1λ^6-isothiazol-1-yl)benzamide], for which the pIC50 on HDAC3/NCor2 was < 5.70; on Recombinant HDAC1 it was > 7.00.

For `C[S@](=N)(=O)c1ccc(C(=O)Nc2cc(-c3ccc(F)cc3)ccc2N)cc1` [Compound 134, (S)—N-[2-amino-5-(4-fluorophenyl)phenyl]-4-(methylsulfonimidoyl)benzamide], the negative logarithm of the IC50 (pIC50) against HDAC3/NCor2 was 5.70 to 6.30; at Recombinant HDAC1 it was > 7.00.

On to `Nc1ccc(-c2cccs2)cc1NC(=O)c1ccc(S2(=O)=NCCC2)cc1` (centres unmarked) [Compound 126, N-[2-amino-5-(2-thienyl)phenyl]-4-(1-oxo-4,5-dihydro-3H-isothiazol-1-yl)benzamide], for which the pIC50 on HDAC3/NCor2 was 5.70 to 6.30. In the case of `Cc1ccc(S(=N)(=O)c2ccc(C(=O)Nc3cc(-c4ccc(F)cc4)ccc3N)cc2)cn1` (centres unmarked) [Compound 233, N-[2-amino-5-(4-fluorophenyl)phenyl]-4-[(6-methyl-3-pyridyl)sulfonimidoyl]benzamide], the values for the pIC50 against HDAC3/NCor2 and on Recombinant HDAC1 were 5.70 to 6.30 and > 7.00, respectively.

Take `C[S@](=N)(=O)c1ccc(C(=O)Nc2cc(-c3ccc(F)s3)ccc2N)cc1` [Compound 149, (S)—N-[2-amino-5-(5-fluoro-2-thienyl)phenyl]-4-(methylsulfonimidoyl)benzamide]: the figures for the pIC50 at HDAC3/NCor2 and on Recombinant HDAC1 were 5.70 to 6.30 and > 7.00, respectively. For `Cc1ccc(-c2ccc(N)c(NC(=O)c3ccc(S(C)(=N)=O)cc3)c2)cc1` (centres unmarked) [Compound 136, N-[2-amino-5-(p-tolyl)phenyl]-4-(methylsulfonimidoyl)benzamide], the values for the pIC50 against HDAC3/NCor2 and at Recombinant HDAC1 were < 5.70 and > 7.00, respectively. For `Cc1cccc(S(=N)(=O)c2ccc(C(=O)Nc3cc(-c4ccc(F)cc4)ccc3N)cc2)n1` (centres unmarked) [Compound 215, N-[2-amino-5-(4-fluorophenyl)phenyl]-4-[(6-methyl-2-pyridyl)sulfonimidoyl]benzamide] the same measures were 5.70 to 6.30 and > 7.00. Regarding `CC(O)c1ccc(-c2ccc(N)c(NC(=O)c3ccc(S(C)(=N)=O)cc3)c2)s1` (centres unmarked) [Compound 255, N-[2-amino-5-[5-(1-hydroxyethyl)-2-thienyl]phenyl]-4-(methylsulfonimidoyl)benzamide], the results for the pIC50 on HDAC3/NCor2 and on Recombinant HDAC1 were < 5.70 and > 7.00, respectively. On to `Cc1ncc(S(=N)(=O)c2ccc(C(=O)Nc3cc(-c4ccc(F)cc4)ccc3N)cc2)cn1` (centres unmarked) [Compound 235, N-[2-amino-5-(4-fluorophenyl)phenyl]-4-[(2-methylpyrimidin-5-yl)sulfonimidoyl]benzamide], for which the pIC50 is 5.70 to 6.30 on HDAC3/NCor2 and > 7.00 at Recombinant HDAC1.

As to `N=S(=O)(c1ccc(C(=O)Nc2cc(-c3ccc(F)cc3)ccc2N)cc1)c1cccc(F)c1` (centres unmarked) [Compound 216, N-[2-amino-5-(4-fluorophenyl)phenyl]-4-[(3-fluorophenyl)sulfonimidoyl]benzamide], the figures for the pIC50 on HDAC3/NCor2 and at Recombinant HDAC1 were 5.70 to 6.30 and > 7.00, respectively. Turning to `Nc1ccc(-c2ccc(F)cc2)cc1NC(=O)c1ccc(S2(=O)=NCCCC2)cc1` (centres unmarked) [Compound 243, N-[2-amino-5-(4-fluorophenyl)phenyl]-4-(1-oxo-1thia-2-azacyclohexen-1-yl)benzamide], the pIC50 against HDAC3/NCor2 is 5.70 to 6.30.

On HDAC3/NCor2, `Nc1ccc(-c2ccc(F)cc2)cc1NC(=O)c1ccc(S2(=O)=NCCC2)nc1` (centres unmarked) [Compound 178, N-[2-amino-5-(4-fluorophenyl)phenyl]-6-(1-oxo-4,5-dihydro-3H-isothiazol-1-yl)pyridine-3-carboxamide] had a pIC50 of 5.70 to 6.30. In turn, `CS(=N)(=O)Cc1ccc(C(=O)Nc2cc(-c3ccc(F)cc3)ccc2N)cn1` (centres unmarked) [Compound 201] gave a pIC50 on HDAC3/NCor2 of 5.70 to 6.30. Turning to `Nc1ccc(-c2ccc(F)s2)cc1NC(=O)c1ccc(S2(=O)=NCCC2)cc1` (centres unmarked) [Compound 160, N-[2-amino-5-(5-fluoro-2-thienyl)phenyl]-4-(1-oxo-4,5-dihydro-3H-isothiazol-1-yl)benzamide], the pIC50 against HDAC3/NCor2 is 5.70 to 6.30.

For `Nc1ccc(-c2ccc(F)cc2)cc1NC(=O)c1cc2cc(S3(=O)=NCCC3)ccc2s1` (centres unmarked) [Compound 204], on HDAC3/NCor2, the pIC50 was 5.70 to 6.30.

Regarding `Nc1ccc(-c2ccc(F)cc2)cc1NC(=O)c1ccc(S2(=O)=NCCC2)cc1` (centres unmarked) [Compound 154, N-[2-amino-5-(4-fluorophenyl)phenyl]-4-(1-oxo-4,5-dihydro-3H-isothiazol-1-yl)benzamide], the pIC50 against HDAC3/NCor2 is 5.70 to 6.30.

As for `N=S(=O)(c1ccc(C(=O)Nc2cc(-c3ccc(F)cc3)ccc2N)cc1)c1ccc(Cl)cn1` (centres unmarked) [Compound 213], the pIC50 on HDAC3/NCor2 was 5.70 to 6.30.
